Assay results reported in ChEMBL document CHEMBL1201862, “PubChem BioAssay data set” (2004).
Active and inactive are the calls of the source.

How the values were obtained:
[1] = target: T1, High affinity choline transporter 1 (Homo sapiens, UniProt Q9GZV3); test: human choline transporter blockers, potency – cell-based, 5-point CRC, membrane potential dye, dose response (AID 504840); format: functional
T1 sequence (Q9GZV3 whole entry): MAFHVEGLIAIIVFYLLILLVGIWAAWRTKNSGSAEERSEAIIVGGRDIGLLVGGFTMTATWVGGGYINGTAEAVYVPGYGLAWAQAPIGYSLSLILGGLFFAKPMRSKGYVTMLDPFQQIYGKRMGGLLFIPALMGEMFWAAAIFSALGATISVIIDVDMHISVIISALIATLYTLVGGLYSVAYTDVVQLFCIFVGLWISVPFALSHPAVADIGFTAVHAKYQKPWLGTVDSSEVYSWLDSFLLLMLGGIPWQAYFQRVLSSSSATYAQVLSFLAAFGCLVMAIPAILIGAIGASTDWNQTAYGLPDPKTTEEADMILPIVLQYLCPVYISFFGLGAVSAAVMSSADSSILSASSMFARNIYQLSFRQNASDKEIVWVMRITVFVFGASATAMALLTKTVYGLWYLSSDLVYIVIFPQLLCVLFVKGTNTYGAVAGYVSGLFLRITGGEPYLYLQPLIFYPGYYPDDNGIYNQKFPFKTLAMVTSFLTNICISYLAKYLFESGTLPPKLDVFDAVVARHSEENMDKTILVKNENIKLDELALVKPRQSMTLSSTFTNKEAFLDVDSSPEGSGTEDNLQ

[2] = system: HEK293; test: cells; format: functional, cell-based; settings: Homo sapiens
[3] = target: T2, Nuclear receptor subfamily 0 group B member 1 (Homo sapiens, UniProt P51843); test: Luminescence-based cell-based high throughput dose response assay for inhibitors of the orphan nuclear receptor subfamily 0, group B, member 1 (DAX1; NR0B1). [Related pubchem assays (depositor defined):AID504766, AID504790]; format: functional
T2 sequence (P51843 whole entry): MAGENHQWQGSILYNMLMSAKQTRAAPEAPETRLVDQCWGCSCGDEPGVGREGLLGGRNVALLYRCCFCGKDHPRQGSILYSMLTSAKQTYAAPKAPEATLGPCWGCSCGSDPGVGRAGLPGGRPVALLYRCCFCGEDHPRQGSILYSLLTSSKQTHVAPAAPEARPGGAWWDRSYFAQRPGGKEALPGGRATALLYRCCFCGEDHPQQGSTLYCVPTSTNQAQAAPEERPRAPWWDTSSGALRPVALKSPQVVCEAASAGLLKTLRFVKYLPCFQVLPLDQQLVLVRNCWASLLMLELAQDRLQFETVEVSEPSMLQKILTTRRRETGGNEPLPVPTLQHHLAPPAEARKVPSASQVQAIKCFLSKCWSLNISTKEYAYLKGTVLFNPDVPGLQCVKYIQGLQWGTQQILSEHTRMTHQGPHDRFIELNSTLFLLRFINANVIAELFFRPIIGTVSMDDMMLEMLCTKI

[4] = system: HEK293; test: cells; format: functional, cell-based; settings: Homo sapiens; remark: listed apart in the source
[5] = system: HEK293; test: cells; format: functional, cell-based; settings: Homo sapiens; remark: listed apart in the source
[6] = system: HEK293; test: inhibition of NOD1-driven NF-kB reporter – cell-based, luminescence, uHTS, primary screen (AID 1578); format: functional; settings: Homo sapiens
[7] = system: HEK293; test: NOD2 signaling inhibitors in MDP-stimulated cells, cell-based, uHTS, luminescence (AID 2001); format: functional; settings: Homo sapiens
[8] = target: T3, SUMO-activating enzyme (Homo sapiens, UniProt Q9UBT2); test: blockers of UBC9-mediated SUMO conjugation – biochemical, AlphaScreen, SUMOylation inhibitor project, confirmation (AID 2018); format: functional
T3 sequence (Q9UBE0 whole entry): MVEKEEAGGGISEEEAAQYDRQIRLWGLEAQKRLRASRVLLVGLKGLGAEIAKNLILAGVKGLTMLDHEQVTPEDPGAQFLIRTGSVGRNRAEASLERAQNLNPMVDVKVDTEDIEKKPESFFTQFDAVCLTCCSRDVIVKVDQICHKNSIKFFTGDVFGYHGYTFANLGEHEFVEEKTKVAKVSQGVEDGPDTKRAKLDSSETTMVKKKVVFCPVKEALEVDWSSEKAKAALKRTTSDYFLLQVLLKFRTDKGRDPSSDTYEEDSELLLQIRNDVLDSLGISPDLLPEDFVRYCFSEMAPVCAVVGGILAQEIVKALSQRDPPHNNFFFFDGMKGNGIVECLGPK
T3 sequence (Q9UBT2 whole entry): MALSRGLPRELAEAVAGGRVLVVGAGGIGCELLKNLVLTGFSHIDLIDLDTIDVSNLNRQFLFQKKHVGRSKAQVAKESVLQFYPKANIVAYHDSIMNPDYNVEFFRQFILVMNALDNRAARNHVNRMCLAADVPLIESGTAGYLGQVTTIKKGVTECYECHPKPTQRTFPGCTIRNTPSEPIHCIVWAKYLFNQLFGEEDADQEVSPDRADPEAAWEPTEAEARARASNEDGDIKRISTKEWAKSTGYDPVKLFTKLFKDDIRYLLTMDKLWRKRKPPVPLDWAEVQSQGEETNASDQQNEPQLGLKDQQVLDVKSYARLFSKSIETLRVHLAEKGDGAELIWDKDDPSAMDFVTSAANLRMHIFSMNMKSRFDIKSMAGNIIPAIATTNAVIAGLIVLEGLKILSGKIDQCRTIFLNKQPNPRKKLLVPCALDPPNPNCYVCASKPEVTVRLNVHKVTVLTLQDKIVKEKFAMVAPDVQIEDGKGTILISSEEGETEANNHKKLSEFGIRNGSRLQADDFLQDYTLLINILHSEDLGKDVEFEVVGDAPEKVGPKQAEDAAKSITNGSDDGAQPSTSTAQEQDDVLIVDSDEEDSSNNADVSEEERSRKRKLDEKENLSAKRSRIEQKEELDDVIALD

[9] = target: T3, SUMO-activating enzyme; test: blockers of SAE1/SAE2–UBC9 SUMO transfer – biochemical, HTRF, uHTS, primary screen (AID 2006); format: protein-complex assay
[10] = target: T4, Aminopeptidase N (Plasmodium falciparum FcB1/Columbia, UniProt O96935); test: malaria alanyl aminopeptidase activity blockers – biochemical, fluorogenic H-Leu-NHMec substrate, 1536-well (AID 1445); design: species or system Plasmodium falciparum 3D7, 3D7
T4 sequence (O96935 whole entry): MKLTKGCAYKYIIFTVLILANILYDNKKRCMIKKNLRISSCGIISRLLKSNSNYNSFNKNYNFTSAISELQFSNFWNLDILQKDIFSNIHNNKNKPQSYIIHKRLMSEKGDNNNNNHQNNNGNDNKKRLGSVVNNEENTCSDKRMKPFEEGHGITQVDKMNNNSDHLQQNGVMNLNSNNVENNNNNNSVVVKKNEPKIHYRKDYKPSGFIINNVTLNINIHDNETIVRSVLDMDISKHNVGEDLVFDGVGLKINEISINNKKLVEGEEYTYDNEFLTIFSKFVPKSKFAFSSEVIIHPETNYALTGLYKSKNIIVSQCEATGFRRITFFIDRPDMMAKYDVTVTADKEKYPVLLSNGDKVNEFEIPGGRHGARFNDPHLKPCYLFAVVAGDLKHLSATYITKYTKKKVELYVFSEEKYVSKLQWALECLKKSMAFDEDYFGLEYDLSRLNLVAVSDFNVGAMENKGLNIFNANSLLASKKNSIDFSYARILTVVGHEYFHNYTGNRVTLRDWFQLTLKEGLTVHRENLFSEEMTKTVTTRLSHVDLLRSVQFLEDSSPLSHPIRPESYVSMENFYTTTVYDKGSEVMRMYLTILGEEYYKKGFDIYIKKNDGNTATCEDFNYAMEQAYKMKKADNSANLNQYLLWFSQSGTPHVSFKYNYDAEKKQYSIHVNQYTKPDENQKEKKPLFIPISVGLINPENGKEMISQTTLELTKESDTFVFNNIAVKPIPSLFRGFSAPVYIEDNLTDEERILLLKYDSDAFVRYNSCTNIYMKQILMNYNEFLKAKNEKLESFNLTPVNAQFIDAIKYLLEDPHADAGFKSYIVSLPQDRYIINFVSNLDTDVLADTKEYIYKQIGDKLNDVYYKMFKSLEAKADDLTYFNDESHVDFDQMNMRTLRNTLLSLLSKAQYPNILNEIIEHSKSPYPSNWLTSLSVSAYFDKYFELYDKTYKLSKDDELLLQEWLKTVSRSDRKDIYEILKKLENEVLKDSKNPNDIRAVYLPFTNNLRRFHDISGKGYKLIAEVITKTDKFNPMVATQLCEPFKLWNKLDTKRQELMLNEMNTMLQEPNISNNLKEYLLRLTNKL

[11] = target: Phospholipase A2 (Homo sapiens, UniProt P04054); format: functional;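 note: confirmatory dose-response counterscreen on phospholipase A2, testing hits that came from an ultra-high-throughput screen for ATG4B inhibitors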
Chain of Phospholipase A2 (P04054 whole entry): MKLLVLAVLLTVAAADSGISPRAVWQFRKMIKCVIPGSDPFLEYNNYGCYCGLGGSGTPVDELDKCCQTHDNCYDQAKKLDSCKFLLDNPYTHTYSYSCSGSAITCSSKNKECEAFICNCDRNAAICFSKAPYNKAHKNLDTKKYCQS

[12] = target: T5, Cysteine protease ATG4B (Homo sapiens, UniProt Q9Y4P1); format: functional;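 note: Fluorescence-based dose-response confirmation assay measuring inhibition of ATG4B activity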
T5 sequence (Q9Y4P1 whole entry): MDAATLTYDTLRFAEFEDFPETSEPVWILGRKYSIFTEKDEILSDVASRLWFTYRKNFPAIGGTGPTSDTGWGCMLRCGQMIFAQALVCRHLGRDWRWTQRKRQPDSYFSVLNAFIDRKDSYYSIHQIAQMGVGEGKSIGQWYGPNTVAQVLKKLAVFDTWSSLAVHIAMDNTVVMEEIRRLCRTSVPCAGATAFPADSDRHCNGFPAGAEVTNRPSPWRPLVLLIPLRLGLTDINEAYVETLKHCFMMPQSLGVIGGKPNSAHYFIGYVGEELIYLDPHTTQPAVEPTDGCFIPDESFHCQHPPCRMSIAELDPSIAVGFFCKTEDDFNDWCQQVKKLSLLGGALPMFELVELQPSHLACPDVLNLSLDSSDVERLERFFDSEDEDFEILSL

[13] = system: H4; test: Luminescence Cell-Based Dose Response HTS to Identify Activators of 5'UTR Stem-Loop Driven Prion Protein mRNA Translation in H4 Neuroglioblastoma Cells. [Related pubchem assays: 1829 (Project Summary), 1814 (Primary HTS)]; format: functional; settings: Homo sapiens
[14] = THP-1 cell cytotoxicity, dose response, cytotoxicity control for non-replicating M. tuberculosis project (AID 489025); format: functional
[15] = HepG2 cell cytotoxicity, dose response, cytotoxicity control for non-replicating M. tuberculosis project (AID 489018); format: functional; settings: Mycobacterium tuberculosis
[16] = Luminescence Cell-Based Dose Response HTS to Identify Activators of Luciferase Translation or Activity in H4 […] Cells. [Related pubchem assays: 1829 (Project Summary), 1814 (Primary HTS)]; format: functional
[17] = Luminescence Cell-Based Dose Confirmation HTS to Identify Activators of 5'UTR Stem-Loop Driven Alpha-Synuclein mRNA Translation in H4 Neuroglioblastoma Cells. [Related pubchem assays: 1829 (Project Summary), 1814 (Primary HTS)]; format: functional
[18] = system: Vero; test: cells; format: functional; settings: Chlorocebus sabaeus
[19] = fluconazole-exposed Candida albicans growth modulators – fluorescence, retest, confirmation (AID 2467); format: functional, cell-based
[20] = NIH-3T3 fibroblast cytotoxicity, dose response, cytotoxicity control, cell-based, fluorescence, Alamar Blue, secondary assay (AID 2327); format: functional;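 note: NIH-3T3 mouse fibroblasts cultured with fluconazole at 8 µg/mL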
[21] = cells; format: functional
[22] = Vero E6 cell cytotoxicity, dose response, cytotoxicity control for non-replicating M. tuberculosis project, secondary assay (AID 492998); format: functional, VeroE6; settings: Vero C1008

Cc1nn(-c2ccccc2)nc1C(=O)Nc1nnc(C(F)(F)F)s1
IC50 [1]: 17.4 µM (active)

COc1ccc(NC(=O)NNC(=O)CCC(=O)Nc2ccccc2Cl)cc1
IC50 [2]: > 67.5 µM (inactive) | IC50 [3]: > 67.5 µM (inactive)

COc1cc2ncnc(NCCc3ccccc3)c2cc1OC
IC50 [4]: > 20 µM (inactive) | IC50 [5]: > 20 µM (inactive) | EC50 [6]: 19 µM (active) | IC50 [7]: 19.3 µM (inactive)

COc1cccc(-c2nc(SCC(=O)Nc3nc(-c4ccccc4)c(C)s3)[nH]c(=O)c2C#N)c1
IC50 [8]: 5.37 µM (active) | IC50 [9]: 15.2 µM (active) | IC50 [10]: 21.2 µM (active) | IC50 [11]: 15 µM (active) | IC50 [12]: 14.9 µM (active)

O=C(Nc1cccc2ccccc12)c1ccc([N+](=O)[O-])o1
EC50 [13]: > 120 µM (not active) | CC50 [14]: 12.7 µM (active) | CC50 [15]: 15.1 µM (active) | EC50 [16]: > 120 µM (not active) | EC50 [17]: > 120 µM (not active) | CC50 [18]: 17.8 µM (active) | EC50 [19]: 1.51 µM (active) | EC50 [20]: > 150 µM (inactive) | IC50 [21]: 5.22 µM (active) | CC50 [22]: 6.37 µM (active)
